Measurements: ChEMBL document CHEMBL3045335, “Synthesis, antimicrobial, and antioxidant activities of some new indole analogues containing pyrimidine and fused pyrimidine systems” (Med Chem Res, 2012)
≈ marks a conversion by molar mass, not a printed value.

Experiments:
Type in all cases: functional
[1] = system: Radical scavenging activity; assay: Antioxidant activity assessed as DPPH radical scavenging activity by spectrophotometric analysis
Klebsiella pneumoniae = assay: Antibacterial activity against Klebsiella pneumoniae at 1 mg/ml after 24 hr by agar well diffusion method; details: for zone of inhibition at 1000 µg/mL: read-out: IZ
Pseudomonas aeruginosa = assay: Antibacterial activity against Pseudomonas aeruginosa at 1 mg/ml after 24 hr by agar well diffusion method; details: for zone of inhibition at 1000 µg/mL: read-out: IZ
Staphylococcus aureus = assay: Antibacterial activity against Staphylococcus aureus at 1 mg/ml after 24 hr by agar well diffusion method; details: for zone of inhibition at 1000 µg/mL: read-out: IZ
Aspergillus niger = assay: Antifungal activity against Aspergillus niger at 1 mg/ml after 72 hr by agar well diffusion method; details: read-out: IZ
[2] = system: Radical scavenging activity; assay: Antioxidant activity assessed as DPPH radical scavenging activity at 100 ug/ml by spectrophotometric analysis
Aspergillus terreus = assay: Antifungal activity against Aspergillus terreus at 1 mg/ml after 72 hr by agar well diffusion method; details: read-out: IZ
Aspergillus oryzae = assay: Antifungal activity against Aspergillus oryzae at 1 mg/ml after 72 hr by agar well diffusion method; details: read-out: IZ

Row | Compound | IC50 [1] | inhibition zone (IZ) (Klebsiella pneumoniae) | inhibition zone (IZ) (Pseudomonas aeruginosa) | inhibition zone (IZ) (Staphylococcus aureus) | zone of inhibition at 1000 µg/mL (Aspergillus niger) | zone of inhibition at 1000 µg/mL (Klebsiella pneumoniae) | Activity [2] | zone of inhibition at 1000 µg/mL (Aspergillus terreus) | zone of inhibition at 1000 µg/mL (Pseudomonas aeruginosa) | zone of inhibition at 1000 µg/mL (Aspergillus oryzae) | zone of inhibition at 1000 µg/mL (Staphylococcus aureus)
1 | COc1ccc(O)c(C(C)(C)C)c1.COc1ccc(O)cc1C(C)(C)C [BUTYLATED HYDROXYANISOLE] | 14.35 µg/mL |  |  |  |  |  |  |  |  |  | 
2 | GENTAMICIN |  | 15 mm | 16 mm | 15 mm |  |  |  |  |  |  | 
3 | CC(C)(C)c1cc(O)ccc1O [E319] | 14.46 µg/mL (≈ 87 µM) |  |  |  |  |  |  |  |  |  | 
4 | N#Cc1c(-c2c(-c3ccccc3)[nH]c3ccc(Cl)cc23)[nH]c(=S)[nH]c1=O | 16.43 µg/mL (≈ 43.4 µM) |  |  |  | 10 mm | 14 mm | 79.7% | 9 mm | 10 mm | 12 mm | 14 mm
5 | N#Cc1c(-c2c(-c3ccccc3)[nH]c3ccccc23)n2nnnc2n2nnnc12 |  |  |  |  | 10 mm | 12 mm |  | 10 mm | 14 mm | 7 mm | 14 mm
6 | N#Cc1c(-c2c(-c3ccccc3)[nH]c3ccc(Cl)cc23)n2nnnc2n2nnnc12 |  |  |  |  | 13 mm | 13 mm |  | 11 mm | 12 mm | 10 mm | 14 mm
7 | Cc1ccc2[nH]c(-c3ccccc3)c(-c3nc(NN)nc(NN)c3C#N)c2c1 |  |  |  |  | 11 mm | 12 mm |  | 11 mm | 10 mm | 9 mm | 10 mm
8 | Cc1ccc2[nH]c(-c3ccccc3)c(-c3c(C#N)c4nnnn4c4nnnn34)c2c1 |  |  |  |  | 9 mm | 11 mm |  | 12 mm | 10 mm | 9 mm | 10 mm
9 | Cc1ccc2[nH]c(-c3ccccc3)c(-c3[nH]c(=S)[nH]c(=O)c3C#N)c2c1 |  |  |  |  | 13 mm | 11 mm |  | 11 mm | 10 mm | 11 mm | 12 mm
10 | N#Cc1c(-c2c(-c3ccccc3)[nH]c3ccccc23)[nH]c(=S)[nH]c1=O |  |  |  |  | 10 mm | 12 mm |  | 10 mm | 11 mm | 10 mm | 11 mm
11 | N#Cc1c(NN)nc(NN)nc1-c1c(-c2ccccc2)[nH]c2ccc(Cl)cc12 |  |  |  |  | 8 mm | 10 mm |  | 10 mm | 13 mm | 10 mm | 11 mm
12 | Cc1ccc2[nH]c(-c3ccccc3)c(-c3nc(NN)nc4[nH]nc(N)c34)c2c1 |  |  |  |  | 10 mm | 13 mm |  | 10 mm | 12 mm | 9 mm | 11 mm
13 | N#Cc1c(-c2c(-c3ccccc3)[nH]c3ccc(Cl)cc23)[nH]c(=S)[nH]c1=S |  |  |  |  | 11 mm | 9 mm |  | 10 mm | 10 mm | 11 mm | 12 mm
14 | NNc1nc(-c2c(-c3ccccc3)[nH]c3ccccc23)c2c(N)n[nH]c2n1 |  |  |  |  | 12 mm | 12 mm |  | 10 mm | 11 mm | 12 mm | 12 mm
15 | OC(Cn1cncn1)(Cn1cncn1)c1ccc(F)cc1F [FLUCONAZOLE] |  |  |  |  | 14 mm |  |  | 15 mm |  | 14 mm | 
16 | NNc1nc(-c2c(-c3ccccc3)[nH]c3ccc(Cl)cc23)c2c(N)n[nH]c2n1 |  |  |  |  | 9 mm | 9 mm |  | 10 mm | 13 mm | 13 mm | 13 mm
17 | N#Cc1c(NN)nc(NN)nc1-c1c(-c2ccccc2)[nH]c2ccccc12 |  |  |  |  | 10 mm | 11 mm |  | 11 mm | 10 mm | 10 mm | 8 mm
18 | N#Cc1c(-c2c(-c3ccccc3)[nH]c3ccccc23)[nH]c(=S)[nH]c1=S |  |  |  |  | 11 mm | 8 mm |  | 11 mm | 7 mm | 10 mm | 8 mm
19 | Cc1ccc2[nH]c(-c3ccccc3)c(-c3[nH]c(=S)[nH]c(=S)c3C#N)c2c1 |  |  |  |  | 9 mm | 8 mm |  | 10 mm | 10 mm | 9 mm | 9 mm
